One may read the DC50 as the midpoint of the concentration-degradation curve. As usually defined, the Dmax is the largest share of the target that was removed.

Assay [1] deals with T1, IRAK4 (Homo sapiens, UniProt Q9NWZ3).
T1 construct: endogenous in cells; host or cells: Karpas299
T1 sequence (Q9NWZ3 1-460): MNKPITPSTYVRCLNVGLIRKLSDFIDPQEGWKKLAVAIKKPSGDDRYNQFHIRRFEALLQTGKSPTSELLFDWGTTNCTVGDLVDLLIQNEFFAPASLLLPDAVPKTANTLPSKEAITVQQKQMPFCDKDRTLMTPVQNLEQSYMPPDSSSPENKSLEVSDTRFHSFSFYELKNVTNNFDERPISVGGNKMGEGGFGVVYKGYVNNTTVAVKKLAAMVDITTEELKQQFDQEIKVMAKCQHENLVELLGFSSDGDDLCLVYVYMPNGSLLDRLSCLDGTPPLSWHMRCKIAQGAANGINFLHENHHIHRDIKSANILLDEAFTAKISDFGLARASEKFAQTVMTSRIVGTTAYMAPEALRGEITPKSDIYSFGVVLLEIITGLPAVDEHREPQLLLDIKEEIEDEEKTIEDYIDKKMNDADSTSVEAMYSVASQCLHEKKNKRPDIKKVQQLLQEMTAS
In words: IRAK4 Degradation Assay with Human Serum (Karpas299, HTRF/TR-FRET). In kind it is cell-based. Particulars: Karpas-299 in human serum, 24 hrs treatment; for DC50: read-out: IRAK4 degradtion with human serum assay DC50; for Dmax: read-out: IRAK4 degradtion with human serum assay Dmax (%). As for the experimental part:
IRAK4 degradation was measured using a TR-FRET-based method (Degorce, François, et al. Current chemical genomics. 2009, 3: 22). Karpas299 resuspended in Human serum AB (GEMINI, 100-512) were seeded into 96-well plates at the density of 0.2 million cells per well and then treated with a series dilution of compounds. After 24 hrs treatment, cells were pelleted via centrifugation and washed with PBS, add 40 μL lysis buffer (Cisbio) to each well after removal of the supernatant. Plates were then incubated at room temperature with shaking for 30 minutes. A total of 16 μL of cell lysates from each well of a 96-well plate was transferred to a 384-well white assay plate. IRAK4 level was quantitated using the HTRF kit as described by the manufacturer manual (Cisbio). FRET signals were measured using a PHERAstar FSX reader (BMG Labtech).
After treatment, add HTRF lysis buffer to each well; seal the plate and incubate 1 hour at room temperature on a plate shaker; Once the cells are lysed, 16 μL of cell lysate are transferred to a PE 384-well HTRF detection plate; 4 μL of pre-mixed HTRF antibodies are added to each well; Cover the plate with a plate sealer, spin 1000 rpm for 1 min, Incubate overnight at room temperature; Read on BMG PheraStar with HTRF protocol (337 nm-665 nm-620 nm).
The inhibition (degradation) percentage of the compound was calculated by the following equation: […]
The IC50 (DC50) value of a compound can be obtained by fitting the following equation
Wherein, X and Y are known values, and IC50, Hillslope, Top and Bottom are the parameters obtained by fitting with software. Y is the inhibition percentage (calculated from the equation), X is the concentration of the compound; IC50 is the concentration of the compound when the […] is reached. The smaller the IC50 value is, the stronger the inhibitory ability of the compound is. Vice versa, the higher the IC50 value is, the weaker the ability the inhibitory ability of the compound is; Hillslope represents the slope of the fitted curve, generally around 1 *; Bottom represents the minimum value of the curve obtained by data fitting, which is generally 0%±20%; Top represents the maximum value of the curve obtained by data fitting, which is generally 100%±20%. The experimental data were fitted by calculating and analyzing with Dotmatics data analysis software.

The target in assay [2] is T1, IRAK4. In words: IRAK4 Degradation Assay (Karpas299, HTRF/TR-FRET). The conditions noted are these: Karpas-299 cells; for Dmax: maximum percentage of degradation. The assay is classed as cell-based. A digest of the protocol: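 Karpas299 cells at 0.2 million per well were exposed to serially diluted compounds for 24 h or 5 h, then lysed. IRAK4 remaining in lysates was quantified by HTRF (665/620 nm) after overnight antibody incubation at room temperature. Percent degradation was fitted to a four-parameter curve to give IC50 (DC50).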
(In TR-FRET formats the signal depends on donor and acceptor labels being close together.)

Where [3] appears, read: 24 h treatment, read-out: IRAK4 in Karpas-299 (24 h) Dmax (%).
The mark [4] stands for this setting: 24 h treatment, read-out: IRAK4 in Karpas-299 (24 h) DC50.
[5] abbreviates: 5 h treatment, read-out: IRAK4 in Karpas-299 (5 h) Dmax (%).
Setting [6] is: 5 h treatment, read-out: IRAK4 in Karpas-299 (5 h) DC50.

Each structure is given as a SMILES string.

As to `COC[C@@H]1CN(C(=O)C2CN(c3cc(F)c([C@H]4CCC(=O)NC4=O)c(F)c3)C2)CCN1[C@H]1CC[C@H](n2cc3cc(NC(=O)c4ccc5cc(C#N)cnn45)c(C(C)(C)O)cc3n2)CC1` [Example 183, 3-cyano-N-(2-((1S,4r)-4-((S)-4-(1-(4-((R)-2,6-dioxopiperidin-3-yl)-3,5-difluorophenyl)azetidine-3-carbonyl)-2-(methoxymethyl)piperazin-1-yl)cyclohexyl)-6-(2-hydroxypropan-2-yl)-2H-indazol-5-yl)pyrrolo[1,2-b]pyridazine-7-carboxamide], the DC50 in assay [1] came out at 35 nM; in assay [2] (setting [4]), 0.3 nM. Also, the maximal degradation (Dmax) in assay [1] worked out at 95%; in assay [2] (setting [3]), 98%.

Take `COC[C@H]1CN(C(=O)C2CN(c3cc(F)c([C@H]4CCC(=O)NC4=O)c(F)c3)C2)CCN1[C@H]1CC[C@H](n2cc3cc(NC(=O)c4ccc5cc(C#N)cnn45)c(C(C)(C)O)cc3n2)CC1` [Example 184, 3-cyano-N-(2-((1R,4r)-4-((R)-4-(1-(4-((R)-2,6-dioxopiperidin-3-yl)-3,5-difluorophenyl)azetidine-3-carbonyl)-2-(methoxymethyl)piperazin-1-yl)cyclohexyl)-6-(2-hydroxypropan-2-yl)-2H-indazol-5-yl)pyrrolo[1,2-b]pyridazine-7-carboxamide]: the DC50 in assay [1] worked out at 126 nM; in assay [2] (setting [4]), 0.7 nM. In addition, the figures for the maximal degradation (Dmax) in assay [1] and in assay [2] (setting [3]) were 97% and 96%, respectively.

With `CC(C)(O)c1cc2nn([C@H]3CC[C@H](N4CCN(C(=O)C5CN(c6cnc(C7CCC(=O)NC7=O)c(F)c6)C5)CC4)CC3)cc2cc1NC(=O)c1ccc2cc(C#N)cnn12` (stereo partly shown) [Example 187, 3-cyano-N-(2-((1r,4r)-4-(4-(1-(6-(2,6-dioxopiperidin-3-yl)-5-fluoropyridin-3-yl)azetidine-3-carbonyl)piperazin-1-yl)cyclohexyl)-6-(2-hydroxypropan-2-yl)-2H-indazol-5-yl)pyrrolo[1,2-b]pyridazine-7-carboxamide], the DC50 in assay [1] is 11 nM; in assay [2] (setting [4]) it was 0.6 nM. Moreover, the results for the Dmax in assay [1] and in assay [2] (setting [3]) were 98% and 96%, respectively.

For the molecule `CC(C)(O)c1cc2nn([C@H]3CC[C@H](N4CCN(C(=O)C5CN(c6cc(F)c([C@H]7CCC(=O)NC7=O)c(F)c6)C5)CC4=O)CC3)cc2cc1NC(=O)c1ccc2cc(C#N)cnn12` [Example 199, 3-cyano-N-(2-((1r,4r)-4-(4-(1-(4-((R)-2,6-dioxopiperidin-3-yl)-3,5-difluorophenyl)azetidine-3-carbonyl)-2-oxopiperazin-1-yl)cyclohexyl)-6-(2-hydroxypropan-2-yl)-2H-indazol-5-yl)pyrrolo[1,2-b]pyridazine-7-carboxamide], the DC50 in assay [1] was determined as 22 nM; in assay [2] (setting [4]) it was 0.4 nM. Also, the figures for the Dmax in assay [1] and in assay [2] (setting [3]) were 95% and 99%, respectively.

As to `CC(C)(O)c1cc2nn([C@H]3CC[C@H](N4CCN(C(=O)C5CN(c6cc(F)c([C@H]7CCC(=O)NC7=O)c(F)c6)C5)CC4)CC3)cc2cc1NC(=O)c1ccc2cc(C(F)(F)F)cnn12` [Example 207], the DC50 in assay [1] was determined as 191 nM; in assay [2] (setting [4]), 1.9 nM. Also, the Dmax in assay [1] and in assay [2] (setting [3]) was 97% throughout.

In the case of `COc1cc(N2CC(C(=O)N3CCN([C@H]4CC[C@H](n5cc6cc(NC(=O)c7ccc8cc(C#N)cnn78)c(C(C)(C)O)cc6n5)CC4)CC3)C2)cc(F)c1N1CCC(=O)NC1=O` [Example 210, 3-cyano-N-(2-((1r,4r)-4-(4-(1-(4-(2,4-dioxotetrahydropyrimidin-1(2H)-yl)-3-fluoro-5-methoxyphenyl)azetidine-3-carbonyl)piperazin-1-yl)cyclohexyl)-6-(2-hydroxypropan-2-yl)-2H-indazol-5-yl)pyrrolo[1,2-b]pyridazine-7-carboxamide], the results for the DC50 in assay [1], in assay [2] (setting [6]) and in assay [2] (setting [4]) were 7 nM, 6.8 nM and 3.3 nM, respectively. In addition, the results for the Dmax in assay [1], in assay [2] (setting [5]) and in assay [2] (setting [3]) were 98%, 97% and 97%, respectively.

`COc1cc(N2CC[C@@H](C(=O)N3CCN([C@H]4CC[C@H](n5cc6cc(NC(=O)c7ccc8cc(C#N)cnn78)c(C(C)(C)O)cc6n5)CC4)CC3)C2)cc(F)c1N1CCC(=O)NC1=O` [Example 212, 3-cyano-N-(2-((1R,4r)-4-(4-((R)-1-(4-(2,4-dioxotetrahydropyrimidin-1(2H)-yl)-3-fluoro-5-methoxyphenyl)pyrrolidine-3-carbonyl)piperazin-1-yl)cyclohexyl)-6-(2-hydroxypropan-2-yl)-2H-indazol-5-yl)pyrrolo[1,2-b]pyridazine-7-carboxamide]: the DC50 in assay [1] stood at 40 nM; in assay [2] (setting [4]) it was 3.6 nM. Moreover, the Dmax in assay [1] is 95%; in assay [2] (setting [3]), 94%.

With `CC(C)(O)c1cc2nn([C@H]3CC[C@H](N4CCN(C5CCN(c6ccc(C7CCC(=O)NC7=O)nc6)CC5)CC4)CC3)cc2cc1NC(=O)c1ccc2cc(C#N)cnn12` (stereo partly shown) [Example 254, 3-cyano-N-(2-((1r,4r)-4-(4-(1-(6-(2,6-dioxopiperidin-3-yl)pyridin-3-yl)piperidin-4-yl)piperazin-1-yl)cyclohexyl)-6-(2-hydroxypropan-2-yl)-2H-indazol-5-yl)pyrrolo[1,2-b]pyridazine-7-carboxamide], the DC50 came to 25 nM in assay [1], 6.7 nM in assay [2] (setting [6]) and 4.4 nM in assay [2] (setting [4]). Further, the Dmax in assay [1] is 98%; in assay [2] (setting [5]), 97%; in assay [2] (setting [3]), 96%.

As to `CC(C)(O)c1cc2nn([C@H]3CC[C@H](N4CCN(C(=O)C5CN(c6ccc(C7CCC(=O)NC7=O)nc6)C5)CC4)CC3)cc2cc1NC(=O)c1ccc2cc(C#N)cnn12` (stereo partly shown) [Example 255, 3-cyano-N-(2-((1r,4r)-4-(4-(1-(6-(2,6-dioxopiperidin-3-yl)pyridin-3-yl)azetidine-3-carbonyl)piperazin-1-yl)cyclohexyl)-6-(2-hydroxypropan-2-yl)-2H-indazol-5-yl)pyrrolo[1,2-b]pyridazine-7-carboxamide], the half-maximal degradation concentration (DC50) in assay [1] was found to be 7.8 nM; in assay [2] (setting [6]), 2.7 nM; in assay [2] (setting [4]), 1.2 nM. The figures for the Dmax in assay [1], in assay [2] (setting [5]) and in assay [2] (setting [3]) were 96%, 96% and 97%, respectively.

As for `CCc1cc(N2CC(C(=O)N3CCN([C@H]4CC[C@H](n5cc6cc(NC(=O)c7ccc8cc(C#N)cnn78)c(C(C)(C)O)cc6n5)CC4)CC3)C2)ccc1N1CCC(=O)NC1=O` [Example 257, 3-cyano-N-(2-((1r,4r)-4-(4-(1-(4-(2,4-dioxotetrahydropyrimidin-1(2H)-yl)-3-ethylphenyl)azetidine-3-carbonyl)piperazin-1-yl)cyclohexyl)-6-(2-hydroxypropan-2-yl)-2H-indazol-5-yl)pyrrolo[1,2-b]pyridazine-7-carboxamide], the half-maximal degradation concentration (DC50) in assay [1] turned out to be 28 nM; in assay [2] (setting [4]), 1.7 nM. The Dmax in assay [1] and in assay [2] (setting [3]) was 97% throughout.

These data come from patent publication US20250195513A1, “DEGRADATION OF IRAK4 BY CONJUGATION OF IRAK4 INHIBITORS WITH E3 LIGASE LIGAND AND METHODS OF USE” (BeiGene, Ltd., priority 2022, published 2025).
